# “Also recorded” adds a separate entry of the source.
# What was measured:
# CYP2B1 [1] = assay: CYP2B1 content in glomeruli (immunohistochemistry, western blot); assay type: in vivo, rat; settings: PAN-treated rats, 6 hours to day 7
# Text: The microsome fraction obtained was subjected to SDS-page electrophoresis in 1 mm slab gels. The separated forms were transferred from gel to a nitrocellulose sheet using a Mini Trans-blot electroblotting unit. The primary antibodies were monoclonal anti-HO-1 (OSA-111, StressGen, Victoria, BC, Canada) and monoclonal anti-CYP2B1 (PM25, Oxford Biomedical Research, Oxford, Mich., USA). Subsequent to primary and secondary antibody (peroxidase-labeled) treatment, the blots were visualized by enhanced chemiluminescence method. Kidney cortical sections were fixed in 10% buffered formalin for 6 hours and embedded in paraffin. After deparaffinization and antigen retrieval, the sections were immunolabeled and visualized according to an avidin-biotin complex (ABC) method. The primary antibody for detection of ferritin was polyclonal anti-Ferritin (L subunit) antibody (605022; Boehringer Mannheim Corp., Indianapolis, Ind., USA).
# ferritin = assay: Ferritin immunohistochemistry in kidney of PAN-treated rats; assay type: in vivo, rat
# Procedure: Kidney cortical sections were fixed in 10% buffered formalin for 6 hours and embedded in paraffin. After deparaffinization and antigen retrieval, the sections were immunolabeled and visualized according to an avidin-biotin complex (ABC) method. The primary antibody for detection of ferritin was polyclonal anti-Ferritin (L subunit) antibody (605022; Boehringer Mannheim Corp., Indianapolis, Ind., USA).
# [2] = system: glomerular epithelial cells GEC; assay: PAN induced catalytic iron release from GEC (bleomycin detectable iron); assay type: cell-based, rat; settings: PAN 1.5 mM 1 h; preincubation CM 2 mM, PB 25 μM, RN 1 mM, PIP 0.2 mM, pyruvate 10 mM
# Procedure: Iron capable of catalyzing free radical reactions was measured by bleomycin detectable iron assay as described by Gutteridge et al, 1981, Biochem. J. 199:263-265, Gutteridge et al, 1982, Biochem. J. 206:605-609, Baliga et al, 1993, Bioche. J. 291:901-905, Baliga et al, 1996, Kidney Int. 49:362-369, Baliga et al, Kidney Int. 53:394-401, Ueda et al, 1996, Kidney Int. 49:370-373, Baliga et al, 1998, Kidney Int. 54:1562-1569.
# Confluent cell monolayer was washed three times with Chelex-treated HBSS to remove as much contaminating iron as possible. The GEC monolayer was then incubated in Chelex-treated HBSS with cytotoxic dose of PAN for a period time at 37° C. before substantial cell killing and after significant iron release occurs (1.5 mM, 60 min, based on a time course study on iron release induced by PAN, data not shown). The incubation medium was then collected for the measurement of catalytic iron using bleomycin detectable iron assay as mentioned above. To determine the effect of CYP inhibitors on the iron release, GEC monolayer was preincubated with CM (2 mM), RN (1 mM, as a control of CM) for 30 min or PB (25 uM) for 60 min in Chelex-treated HBSS at 37° C. After the incubation, the medium with CYP inhibitor was discarded and then the cell monolayers were washed twice with chelex-treated HBSS prior to the incubation of PAN.
# [3] = system: glomerular epithelial cells GEC; assay: PAN induced hydroxyl radical formation in GEC (deoxyribose degradation); assay type: cell-based, rat; settings: PAN 1.5 mM 1 h; preincubation CM 2 mM, PB 25 μM, RN 1 mM, PIP 0.2 mM, pyruvate 10 mM
# Procedure: 2-deoxy-D-ribose in a final concentration of 3 mM was added to the medium just prior to the incubation. At the end of the incubation, the incubation medium was collected for the measurement of hydroxyl radical formation by deoxyribose degradation method as in Baliga et al (Kidney Intl. 1996, 50:1118-1124.).
# Confluent GEC monolayer was washed twice with HBSS and then incubated with 1.5 mM PAN in HBSS for a period of time before substantial cell killing occurs (1 h) at 37° C. 2-deoxy-D-ribose in a final concentration of 3 mM was added to the medium just prior to the incubation. At the end of the incubation, the incubation medium was collected for the measurement of hydroxyl radical formation by deoxyribose degradation method described in Baliga et al, 1996, Kidney Int. 50:1118-1124. To determine the effect of CYP inhibitors on the hydroxyl radical formation, GEC monolayers were preincubated with CM, RN or PB as mentioned above.
# HO-1 = HO-1 induction in GEC exposed to PAN (western blot); assay type: cell-based, rat; settings: PIP 0.2 mM, CM 2 mM, pyruvate 10 mM
# Text: (§1) The microsome fraction obtained was subjected to SDS-page electrophoresis in 1 mm slab gels. The separated forms were transferred from gel to a nitrocellulose sheet using a Mini Trans-blot electroblotting unit. The primary antibodies were monoclonal anti-HO-1 (OSA-111, StressGen, Victoria, BC, Canada) and monoclonal anti-CYP2B1 (PM25, Oxford Biomedical Research, Oxford, Mich., USA). Subsequent to primary and secondary antibody (peroxidase-labeled) treatment, the blots were visualized by enhanced chemiluminescence method.
# cytochrome P450 = assay: Cytochrome P450 content of microsome fraction (CO difference spectrum); settings: for CYP content in kidney / glomeruli: PAN-treated rats, day 7
# Procedure: Male Sprague-Dawley rats weighing 200-250 g were injected either saline or a single intravenous injection of PAN (Sigma, St. Louis) in a dose of 7.5 mg/100g BW (day 0) as described in Ueda et al, 19996, Kidney Intl. 49:370-373. Animals were housed in separate metabolic cages and allowed free access to rat chow (Purina). Daily urine protein excretion was determined and animals were sacrificed on day 7. Blood was obtained for the measurement of serum albumin and the evaluation of renal function as measured by blood urea nitrogen (BUN) and plasma creatinine. Cell fraction of the glomeruli was prepared for bleomycin detectable iron assay. The microsome fraction was utilized for the measurement of CYP content.
# CYP2B1 [4] = assay: CYP2B1 content in GEC exposed to PAN (western blot); assay type: cell-based, rat; settings: PAN 1.5 mM for 2 hr at 37° C.; CM 2 mM, PIP 0.2 mM, pyruvate 10 mM
# Text: as §1
# [5] = Weight loss/gain of rats before and after treatments (PAN-induced nephrotic syndrome); assay type: in vivo, rat; settings: for Body weight After Treatment (day7): rats, day 7, PAN 7.5 mg/100 g BW iv, CM 120 mg/kg ip twice a day, PB 400 mg/kg ip every other day, means ± SE
# Procedure: Two different general CYP inhibitors were used, cimetidine (CM) and piperonyl butoxide (PB). Cimetidine has imidazole and cyano groups that inhibit CYP by interacting with the heme moiety. […] To determine the effect of the CYP inhibitors in PAN- induced nephrotic syndrome, CM (120 mg/kg BW) was administered intraperitoneal 1 h prior to PAN injection and then twice a day. Piperonyl butoxide (PB) which yields a metabolite that binds to the heme moiety of CYP, was given intraperitoneal (400 mg/kg BW) 4h before PAN injection and then every other day.
# Also, the CYP2B1 inhibitor piperine (PIP), a methylenedioxyphenyl compound found in black and red pepper was used. PIP is believed to inhibit CYP2B1 by forming an inhibitory complex therewith. PIP was administered at a dose of 85 mg/kg of body weight (BW) by an intraperitoneal injection 16 hours prior to PAN injection and then once a day.
Compound,CYP2B1 content in the glomeruli (CYP2B1 [1]),ferritin content in the glomeruli and the tubules (ferritin),bleomycin detectable (catalytic) iron release from GEC [2],hydroxyl radical formation in GEC [3],HO-1 induction in GEC (HO-1),CYP content in kidney / glomeruli (cytochrome P450),CYP2B1 content in GEC (CYP2B1 [4]),Body weight After Treatment (day7) [5],CYP content in the liver (cytochrome P450; PAN treated vs untreated rats),ascites and weight gain at the time of sacrifice ([5]; compared to control animals and those treated with CYP inhibitors)
"CN/C(=N/CCSCc1nc[nH]c1C)NC#N [CM, cimetidine]",preserved,markedly reduced the up-regulation,drastically prevents the increase; also recorded: prevented the increase,markedly reduce; also recorded: significantly reduced,significantly prevented the induction,significantly preserve,preserved,253 ± 9 g,–,–
"CN(C)c1ncnc2c1ncn2[C@@H]1O[C@H](CO)[C@@H](N)[C@H]1O [PAN, puromycin aminonucleoside]",marked decrease,significant increase,significant increase,significant increase; also recorded: significant production,marked induction,not detectable,significant reduction,291 ± 8 g,no difference,developed ascites and significant weight gain
